From publication PMC4561586 (Biochimica et biophysica acta, 2015) come the findings set out here.

In the assay the target is T1, Nostoc linoleate 10S-dioxygenase (10S-DOX) (Nostoc punctiforme, UniProt B2J5P4).
T1 sequence (B2J5P4 1-542): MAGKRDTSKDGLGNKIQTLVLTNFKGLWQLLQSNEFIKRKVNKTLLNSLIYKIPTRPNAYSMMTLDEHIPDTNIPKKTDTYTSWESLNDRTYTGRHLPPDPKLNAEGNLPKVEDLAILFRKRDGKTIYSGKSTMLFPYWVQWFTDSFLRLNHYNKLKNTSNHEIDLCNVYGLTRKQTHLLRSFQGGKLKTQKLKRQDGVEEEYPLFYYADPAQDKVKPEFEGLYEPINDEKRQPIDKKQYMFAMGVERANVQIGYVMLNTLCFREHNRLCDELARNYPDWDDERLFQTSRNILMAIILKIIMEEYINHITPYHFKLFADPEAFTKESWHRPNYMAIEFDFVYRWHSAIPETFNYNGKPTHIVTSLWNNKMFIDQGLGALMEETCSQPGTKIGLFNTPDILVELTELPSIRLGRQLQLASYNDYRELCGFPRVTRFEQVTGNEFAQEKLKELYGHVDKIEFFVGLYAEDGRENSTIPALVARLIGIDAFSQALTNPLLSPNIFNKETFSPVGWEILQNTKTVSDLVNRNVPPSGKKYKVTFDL
Description: oxygen uptake kinetics. The format is biochemical.

Consider `CCCCC/C=C\C/C=C\CCCCCCCC(=O)O` [LA, linoleic acid], for which the Km was determined as 60.3 µM.

As a reminder, the Km is the substrate concentration at which the rate is half of its maximum.
